In patent US20120101160A1, “Use of chemical chaperones to treat glaucoma caused by misfolded or misprocessed proteins” (Alcon, Inc., priority 2004, published 2012):

Experiments:
[1] = target: ΔF508 cystic fibrosis transmembrane conductance regulator protein (CFTR) (Homo sapiens, UniProt P13569, DEL508-508); settings: cells expressing ΔF508 CFTR; similar to cells expressing the wild-type CFTR protein; cited from earlier work
mutant (Y437H) myocilin = target: T1, mutant (Y437H) myocilin (Homo sapiens, UniProt Q99972, Y437H); experiment: secretion of mutant myocilin in cultured CHO cells (Western blot of media and lysates); type: cell-based; settings: CHO stable transfectants expressing Y437H myocilin; overnight incubation with chemical chaperone; glycerol 10%; E lane; FIG. 1/FIG. 2
T1 construct: expressed in transfected cells
T1 sequence (Q99972 33-504 Y437H): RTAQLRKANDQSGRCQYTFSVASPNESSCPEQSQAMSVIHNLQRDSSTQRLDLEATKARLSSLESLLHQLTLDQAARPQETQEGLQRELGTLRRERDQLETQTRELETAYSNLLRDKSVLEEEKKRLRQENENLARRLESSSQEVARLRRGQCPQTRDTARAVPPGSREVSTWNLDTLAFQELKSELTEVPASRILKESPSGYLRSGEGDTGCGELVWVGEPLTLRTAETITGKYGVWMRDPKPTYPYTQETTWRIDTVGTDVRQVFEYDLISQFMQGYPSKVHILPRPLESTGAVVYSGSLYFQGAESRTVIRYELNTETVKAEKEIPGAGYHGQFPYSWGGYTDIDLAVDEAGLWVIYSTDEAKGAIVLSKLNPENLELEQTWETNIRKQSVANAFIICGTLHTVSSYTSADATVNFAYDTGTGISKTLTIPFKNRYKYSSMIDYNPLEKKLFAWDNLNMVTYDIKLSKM
Text: (§1) Wild-type myocilin is normally expressed and secreted from the human TM, whereas mutant disease-causing myocilin is retained intracellularly (Jacobson, Andrews et al. 2001). […] We tested several compounds for their ability to effect secretion of mutant myocilin in cultured CHO cells that were engineered for their ability to express, but not secrete, mutant (Y437H or Q368X) myocilin. Plasmids expressing wild-type or mutant myocilin were generated as described (Jacobson, Andrews et al. 2001).
(§2) CHO stable transfectants were grown in F12K media containing 10% FBS supplemented with penicillin-streptomycin-glutamine. Stable transfectants were generated by transfection with lipofectamine plus (Invitrogen) followed by limiting dilution plating and selection in G-418 (600 ug/ml). CHO cells were incubated with serum-free media 24 h post-transfection and media or cell lysates were collected after overnight incubation with the chemical chaperone. Equivalent cell lysate protein amounts (5 ug) were loaded for SDS-PAGE analysis. Cell media was not concentrated and was loaded at 16 ul per lane for SDS-PAGE/Western blot analysis.
(§3) Cells were rinsed with PBS and solubilized in a commercial mammalian extraction buffer (M-Per™; Pierce, Rockford, Ill.) supplemented with a protease inhibitor cocktail (Complete, EDTA-free; Boehringer Mannheim, Indianapolis, Ind.) followed by centrifugation at 12,000×g for 5 min. Protein concentration of the supernatant was determined with Coomasie Plus Protein Assay Reagent (Pierce). Cell extracts were stored at −20° C.
(§4) Cell media or extracts were analyzed using pre-cast NuPAGE polyacrylamide gels and the Novex gel electrophoresis system (Novex, San Diego, Calif.). Proteins were electroblotted to Hybond-P PVDF membranes (Amersham Pharmacia Biotech, Piscataway, N.J.), blocked with gelatin, and probed with affinity purified rabbit anti-MYOC antibody 129 (generated to myocilin peptide 156-171) (Jacobson, Andrews et al. 2001) and an anti-rabbit IgG secondary antibody (Amersham). Immunoreactivity was detected with the ECL Plus detection system (Amersham). Blots were exposed to BioMax MR film (Eastman Kodak, Rochester, N.Y.) and scanned with a Hewlett-Packard ScanJet ADF scanner (Hewlett Packard, Boise, Id.) for figure presentation.

mutant (Q368X) myocilin = target: T2, mutant (Q368X) myocilin (Homo sapiens, UniProt Q99972); experiment: as above; type: cell-based; settings: CHO stable transfectants expressing Q368X myocilin; overnight incubation with chemical chaperone; glycerol 10%; E and I lanes; FIG. 1/FIG. 2
T2 construct: expressed in transfected cells
T2 sequence (Q99972 33-367 limits assumed): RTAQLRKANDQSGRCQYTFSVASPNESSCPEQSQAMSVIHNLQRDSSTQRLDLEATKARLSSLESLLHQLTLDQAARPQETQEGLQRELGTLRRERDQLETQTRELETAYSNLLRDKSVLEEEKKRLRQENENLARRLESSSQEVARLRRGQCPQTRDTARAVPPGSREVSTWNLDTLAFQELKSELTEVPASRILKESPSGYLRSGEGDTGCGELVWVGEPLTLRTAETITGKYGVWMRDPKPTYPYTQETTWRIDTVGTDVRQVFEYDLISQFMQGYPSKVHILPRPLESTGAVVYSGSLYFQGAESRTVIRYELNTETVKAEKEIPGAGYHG
Text: as §1, §2, §3, §4

Sequence of ΔF508 cystic fibrosis transmembrane conductance regulator protein (CFTR) (P13569 with tags, fused parts or gaps DEL508-508): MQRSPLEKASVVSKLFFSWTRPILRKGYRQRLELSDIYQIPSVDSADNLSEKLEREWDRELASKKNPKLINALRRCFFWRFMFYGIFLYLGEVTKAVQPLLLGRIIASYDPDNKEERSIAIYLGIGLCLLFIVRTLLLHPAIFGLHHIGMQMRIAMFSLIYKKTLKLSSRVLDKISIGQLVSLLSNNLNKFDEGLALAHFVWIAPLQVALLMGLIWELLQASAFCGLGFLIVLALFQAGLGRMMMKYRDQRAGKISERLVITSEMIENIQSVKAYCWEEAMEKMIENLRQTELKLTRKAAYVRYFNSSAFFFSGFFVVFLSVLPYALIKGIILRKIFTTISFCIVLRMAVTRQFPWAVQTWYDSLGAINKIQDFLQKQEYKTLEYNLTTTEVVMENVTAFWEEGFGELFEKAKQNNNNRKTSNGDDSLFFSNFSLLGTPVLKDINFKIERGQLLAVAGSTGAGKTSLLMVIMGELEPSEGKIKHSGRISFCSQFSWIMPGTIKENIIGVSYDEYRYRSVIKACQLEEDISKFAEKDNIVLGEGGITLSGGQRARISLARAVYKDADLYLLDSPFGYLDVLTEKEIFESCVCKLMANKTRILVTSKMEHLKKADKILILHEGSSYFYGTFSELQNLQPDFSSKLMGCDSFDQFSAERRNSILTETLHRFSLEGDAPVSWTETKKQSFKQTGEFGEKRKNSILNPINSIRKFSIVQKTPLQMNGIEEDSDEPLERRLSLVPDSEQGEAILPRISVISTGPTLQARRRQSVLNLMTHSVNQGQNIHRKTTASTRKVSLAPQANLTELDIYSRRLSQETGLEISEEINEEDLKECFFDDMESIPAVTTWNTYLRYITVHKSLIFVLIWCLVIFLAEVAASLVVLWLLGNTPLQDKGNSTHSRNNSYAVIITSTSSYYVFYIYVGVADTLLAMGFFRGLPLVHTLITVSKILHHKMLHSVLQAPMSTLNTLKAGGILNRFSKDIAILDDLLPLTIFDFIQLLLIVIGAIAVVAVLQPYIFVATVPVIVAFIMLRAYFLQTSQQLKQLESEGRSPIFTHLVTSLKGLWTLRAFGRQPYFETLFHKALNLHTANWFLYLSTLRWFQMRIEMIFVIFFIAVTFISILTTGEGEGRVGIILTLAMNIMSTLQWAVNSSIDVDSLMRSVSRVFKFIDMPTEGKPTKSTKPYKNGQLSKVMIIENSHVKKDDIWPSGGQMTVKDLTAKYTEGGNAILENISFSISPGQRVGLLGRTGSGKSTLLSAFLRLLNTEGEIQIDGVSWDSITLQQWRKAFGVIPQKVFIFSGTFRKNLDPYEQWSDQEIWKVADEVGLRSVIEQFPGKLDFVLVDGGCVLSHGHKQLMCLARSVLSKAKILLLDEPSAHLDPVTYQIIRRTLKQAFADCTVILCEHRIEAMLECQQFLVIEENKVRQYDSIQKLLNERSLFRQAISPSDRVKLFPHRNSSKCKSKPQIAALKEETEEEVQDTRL

OCC(O)CO [Glycerol, glycerol]
restoration of forskolin-dependent chloride transport [1]: restored the ability of the mutant cells to exhibit forskolin-dependent chloride transport | ability to effect secretion of mutant myocilin (mutant (Y437H) myocilin): able to effect full-length myocilin secretion | ability to effect secretion of mutant myocilin (mutant (Q368X) myocilin): able to effect full-length myocilin secretion

[2H]O[2H] [deuterated water]
restoration of forskolin-dependent chloride transport [1]: restored the ability of the mutant cells to exhibit forskolin-dependent chloride transport

C[N+](C)(C)[O-] [trimethylamine N-oxide]
restoration of forskolin-dependent chloride transport [1]: restored the ability of the mutant cells to exhibit forskolin-dependent chloride transport

Gentamycin
ability to effect secretion of mutant myocilin (mutant (Y437H) myocilin): did not effect secretion of mutant myocilin | ability to effect secretion of mutant myocilin (mutant (Q368X) myocilin): did not effect secretion of mutant myocilin
